Laboratory results published in patent US20230150932A1, “COMPOSITIONS FOR STABILIZING AN ISOTHIOCYANATE” (VIO CHEMICALS AG, priority 2020, published 2023).

Columns and labels:
[1] = Stability study by HPLC, storage under Conditions A (bench, 20-25° C.); type: physicochemical; details: Conditions A 20-25° C.; for RRT 0.96: impurity; for RRT 0.76: thiourea degradation impurity
Method: (§1) The storage conditions studied in the present invention are of three types:
(§2) In all three above types of conditions, the storage media is a simple dark glass vial or round-bottomed flask. Each sample is blown with Argon before securing the cap. No further treatment regarding the atmosphere is performed. The vial is capped and secured by use of a commercially available appropriate means for sealing the cap, e.g. Parafilm. The storage media is not restrictive with respect to the present invention.
(§3) The Sulforaphane formulations were analyzed with HPLC (PDA/UV at 240 nm) using standards for identification and quantification purpose.
(§4) Take 1 mL of H3PO4 into a 1 L volumetric flask containing about 500 mL of water, dilute to the volume with water and mix well/Acetonitrile.
(§5) Transfer accurately about 20 mg of sample in to a 20 mL clean and dry volumetric flask. Dilute to the volume with diluent.
(§6) Sulphoraphane retention time is about 20 mins
(§7) Conditions A: bench (20-25° C.) Conditions B: fridge, 2-8° C. Conditions C: fridge-freezer, (−15) ° C.

[2] = Stability study by HPLC, storage under Conditions C (fridge-freezer, -15° C.); type: physicochemical; details: Conditions C -15° C.; for RRT 0.96: impurity; for RRT 0.76: thiourea degradation impurity
Method: as §1, §2, §3, §4, §5, §6, §7

[3] = left on bench for 6 months; HPLC
Excerpt: In order to determine the structure of the major degradation impurity found in the present study (RRT 0.76) a sample of synthetically produced Sulforaphane was left on bench for 6 months.

[4] = diluted in water, heated at 80° C. for 24 hrs; HPLC

SMILES: C[S+]([O-])CCCCN=C=S (stereo not drawn) [Comparative Example 3, 4-(methylsulfinyl)butylisothiocyanate]
- Sulfone ([1]; 1 month): 1.31
- Sulforaphane ([1]; 1 month): 36.35
- RRT 0.96 ([1]; 1 month): 3.88
- RRT 0.76 ([1]; 1 month): 29.16
- Sulfone ([1]; 2 months): 0.84
- Sulforaphane ([1]; 2 months): 24.51
- RRT 0.96 ([1]; 2 months): 3.95
- RRT 0.76 ([1]; 2 months): 34.37
- Sulfone ([1]; 3 months): 0.78
- Sulforaphane ([1]; 3 months): 19.98
- RRT 0.96 ([1]; 3 months): 4.11
- RRT 0.76 ([1]; 3 months): 38.38
- Sulfone ([1]; 7 days): 2.32
- Sulforaphane ([1]; 7 days): 65.48
- RRT 0.96 ([1]; 7 days): 2.62
- RRT 0.76 ([1]; 7 days): 15.87
- Sulfone ([1]; 15 days): 1.92
- Sulforaphane ([1]; 15 days): 53.28
- RRT 0.96 ([1]; 15 days): 3.20
- RRT 0.76 ([1]; 15 days): 21.61
- Sulfone ([1]; zero time): 3.40
- Sulforaphane ([1]; zero time): 94.74
- RRT 0.96 ([1]; zero time): 0.15
- RRT 0.76 ([1]; zero time): 0.01
- Sulfone ([2]; 1 month): 3.4
- Sulforaphane ([2]; 1 month): 94.27
- RRT 0.96 ([2]; 1 month): 0.23
- RRT 0.76 ([2]; 1 month): 0.25
- Sulfone ([2]; 2 months): 3.42
- Sulforaphane ([2]; 2 months): 94.43
- RRT 0.96 ([2]; 2 months): 0.25
- RRT 0.76 ([2]; 2 months): 0.27
- Sulfone ([2]; 3 months): 3.44
- Sulforaphane ([2]; 3 months): 94.51
- RRT 0.96 ([2]; 3 months): 0.51
- RRT 0.76 ([2]; 3 months): 0.23
- Sulfone ([2]; 7 days): 3.38
- Sulforaphane ([2]; 7 days): 95.21
- RRT 0.96 ([2]; 7 days): 0.15
- Sulforaphane ([2]; 15 days): 97.23
- RRT 0.96 ([2]; 15 days): 0.03
- RRT 0.76 ([2]; 15 days): 0.62
- Sulfone ([2]; zero time): 3.40
- Sulforaphane ([2]; zero time): 94.74
- RRT 0.96 ([2]; zero time): 0.15
- RRT 0.76 ([2]; zero time): 0.01
- percentage of impurity RRT 0.76 [3]: about 74.8%
- impurity RRT 0.76 detected (chromatographic purity) [4]: more than 93%
